Data on ten compounds can be found in patent US20220235064A1 (WELLMARKER BIO CO., LTD., priority 2019, published 2022).

Structures are written as SMILES.

Assay [1] deals with cancer cell line KM12C, in which RON is activated. As to the kind of experiment: Cell growth inhibitory ability in RON-activated cancer cell line (MTS). The format is cell-based. The conditions noted are these: Homo sapiens, 48 hours, absorbance 490 nm. The method in brief:
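KM12C cells (RON-activated, MEM with FBS) exposed to compound […] for 48 h. MTS added 24 h after treatment ended, incubated 4 h at 37° C, absorbance read at 490 nm. IC50 derived from absorbance.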

For assay [2], the system named is cancer cell line HT29, in which mutated RON (Δ160) is expressed. As to the kind of experiment: Cell-killing efficacy in RON-mutated cancer cell line HT29 (trypan blue). The format is cell-based. The following applies: for cell-killing effect (in words): HT29, as compared with the positive control; for cytotoxicity at 1 µM / cytotoxicity at 5 µM: Homo sapiens, HT-29, 48 hours, trypan blue, n=2, read-out: Cell death (%) Cancer cell line HT29. The protocol: (§1) Experimental Example 4: Measurement of Cell-Killing Efficacy of Example Compounds in RON-Mutated Cancer Cell Lines
(§2) Each of two colorectal cancer cell lines, that is, the cancer cell line HT29 (30038, KCLB, RPMI+10% FBS), in which mutated RON (Δ160) is expressed, and the cancer cell line SW620 (CCL-227, ATCC, RPMI+10% FBS), in which mutated RON (Δ155) is expressed, was dispensed into each 60 mm^2 dish at 1×10^5 cells. After 24 hours, the dish was treated with each of the example compounds at a concentration of 1 μM or 5 μM while performing medium exchange, and then reaction was allowed to proceed for 48 hours. After 48 hours, centrifugation was performed for 4 minutes at 1,500 rpm to collect cells and cell fluid. Thereafter, living cells and dead cells were quantified (n=2) using a trypan blue solution (15250-061, Gibco), and statistical analysis was performed using Excel-T-test. Here, as a negative control, only a solvent (0.10% DMSO) was used; and as a positive control, N-(4-(2-amino-3-chloropyridin-4-yloxy)-3-fluorophenyl)-4-ethoxy-1-(4-fluorophenyl)-2-oxo-1,2-dihydropyridine-3-carboxamide, which is the compound of Example 1 in WO 2008/058229 A1, was used.

In assay [3] the test system is cancer cell line KM12C, in which RON is activated. As to the kind of experiment: Cell-killing efficacy in RON-activated cancer cell line (trypan blue). The format is cell-based. The following applies: for cytotoxicity at 1 µM / cytotoxicity at 5 µM: Homo sapiens, 48 hours, trypan blue, n=2, read-out: Cell death (%) Cancer cell line KM12C; for cell-killing effect (in words): as compared with the positive control. A digest of the protocol:
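KM12C cells seeded 1×10^5 per 60 mm^2 dish in MEM + 10% FBS, then exposed 24 h later to compound at 1 μM or 5 μM for 48 h.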

Assay [4] has as its system cancer cell line SW620, in which mutated RON (Δ155) is expressed. As to the kind of experiment: Cell-killing efficacy in RON-mutated cancer cell line SW620 (trypan blue). The format is cell-based. The conditions noted are these: for cytotoxicity at 1 µM / cytotoxicity at 5 µM: Homo sapiens, SW-620, 48 hours, trypan blue, n=2, read-out: Cell death (%) Cancer cell line SW620; for cell-killing effect (in words): SW620, as compared with the positive control. The protocol:
as §1, §2

The target of the next assay is T1, RON tyrosine kinase (Homo sapiens, UniProt Q04912).
T1 construct: purchased Carna Bioscience
T1 sequence (Q04912 25-1400): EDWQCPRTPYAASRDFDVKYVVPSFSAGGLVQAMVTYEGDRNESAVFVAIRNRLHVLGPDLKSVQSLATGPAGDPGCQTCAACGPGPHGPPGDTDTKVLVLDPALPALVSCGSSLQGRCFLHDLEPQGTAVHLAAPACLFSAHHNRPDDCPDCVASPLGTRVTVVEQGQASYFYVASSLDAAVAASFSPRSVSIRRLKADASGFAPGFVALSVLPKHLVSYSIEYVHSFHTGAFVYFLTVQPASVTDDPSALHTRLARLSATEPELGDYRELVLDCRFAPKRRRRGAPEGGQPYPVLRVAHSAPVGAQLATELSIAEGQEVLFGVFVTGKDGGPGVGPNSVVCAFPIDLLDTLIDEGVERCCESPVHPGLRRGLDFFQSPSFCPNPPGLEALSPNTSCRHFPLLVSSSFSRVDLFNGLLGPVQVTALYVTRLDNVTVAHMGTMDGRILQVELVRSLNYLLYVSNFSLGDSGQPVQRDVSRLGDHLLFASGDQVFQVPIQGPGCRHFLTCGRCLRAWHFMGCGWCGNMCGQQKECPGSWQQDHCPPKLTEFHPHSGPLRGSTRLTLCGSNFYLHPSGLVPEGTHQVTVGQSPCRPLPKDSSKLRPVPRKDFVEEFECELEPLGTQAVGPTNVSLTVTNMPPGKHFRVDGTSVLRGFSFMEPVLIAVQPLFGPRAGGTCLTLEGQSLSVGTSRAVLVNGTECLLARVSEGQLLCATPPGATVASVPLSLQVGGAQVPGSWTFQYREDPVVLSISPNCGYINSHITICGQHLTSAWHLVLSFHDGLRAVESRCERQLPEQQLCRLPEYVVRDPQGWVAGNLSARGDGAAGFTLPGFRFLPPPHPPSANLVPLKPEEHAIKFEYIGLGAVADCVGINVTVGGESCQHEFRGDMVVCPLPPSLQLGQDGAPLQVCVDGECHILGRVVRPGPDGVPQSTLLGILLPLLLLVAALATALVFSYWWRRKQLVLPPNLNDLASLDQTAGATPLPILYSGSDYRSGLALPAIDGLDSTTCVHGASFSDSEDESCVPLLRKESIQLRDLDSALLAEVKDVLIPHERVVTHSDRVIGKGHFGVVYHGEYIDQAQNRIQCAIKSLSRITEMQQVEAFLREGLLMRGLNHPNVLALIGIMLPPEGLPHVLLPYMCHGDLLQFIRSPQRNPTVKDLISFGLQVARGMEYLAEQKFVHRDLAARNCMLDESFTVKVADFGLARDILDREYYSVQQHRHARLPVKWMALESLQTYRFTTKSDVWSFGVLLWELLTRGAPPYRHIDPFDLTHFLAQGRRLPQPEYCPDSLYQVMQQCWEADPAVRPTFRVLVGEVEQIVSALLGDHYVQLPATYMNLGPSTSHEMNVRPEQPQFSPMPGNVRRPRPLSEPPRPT
The assay can be described thus: Enzyme inhibitory activity against RON tyrosine kinase (TR-FRET). It is filed as biochemical. The conditions noted are these: RON (Carna Bioscience). A digest of the protocol:
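Recombinant RON was preincubated with compound for 15 min at RT in 50 mM HEPES pH 7.5, 10 mM MgCl2, 1 mM EGTA, 2 mM DTT, 0.01% Tween-20. Enzyme (0.4 nM), ATP (60 μM) and tyrosine peptide (400 nM) were prepared at 2×, 4× and 4× final. After 60 min at RT, EDTA/Eu-anti-phosphotyrosine stop; IC50 from 665 nm TR-FRET emission.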
A general note: TR-FRET usually uses a lanthanide donor and a delayed reading to cut background.

`COc1cc2c(Oc3ccc(NC(=O)c4c5c(cn(-c6ccc(F)cc6)c4=O)CCO5)cc3F)ccnc2cc1OCCN1CC(C#N)C1` [Example 125]: in assay [1], half-maximal inhibition (IC50) was put at 3 nM. Further, in assay [2], the “cell-killing effect (in words)” value was “high cell-killing effect”, the cytotoxicity at 1 µM turned out to be 39.4% and the cytotoxicity at 5 µM came to 67.8%. Moreover, in assay [3], the cytotoxicity at 1 µM is 22.3%, the cytotoxicity at 5 µM was found to be 39.6% and the “cell-killing effect (in words)” value is “high cell-killing effect”. In addition, in assay [4], the cytotoxicity at 1 µM was found to be 60.9%, the cytotoxicity at 5 µM is 91.5% and the “cell-killing effect (in words)” value is “high cell-killing effect”.
For `COc1cc2c(Oc3ccc(NC(=O)c4c5c(cn(-c6ccc(F)cc6)c4=O)CCO5)cc3F)ccnc2cc1OCCN1CCC(F)(F)C1` [Example 134, N-(4-((7-(2-(3,3-Difluoropyrrolidin-1-yl)ethoxy)-6-methoxyquinolin-4-yl)oxy)-3-fluorophenyl)-5-(4-fluorophenyl)-6-oxo-2,3,5,6-tetrahydrofuro[3,2-c]pyridine-7-carboxamide], half-maximal inhibition in assay [1] (IC50) required 2 nM. Further, in assay [2], the “cell-killing effect (in words)” value is “high cell-killing effect”, the cytotoxicity at 1 µM came to 47% and the cytotoxicity at 5 µM came to 82.2%. In addition, in assay [3], the cytotoxicity at 1 µM was 35.5%, the cytotoxicity at 5 µM worked out at 47.4% and the “cell-killing effect (in words)” value is on record as “high cell-killing effect”. Further, in assay [4], the cytotoxicity at 1 µM turned out to be 76.1%, the cytotoxicity at 5 µM was 82.8% and the “cell-killing effect (in words)” value is recorded as “high cell-killing effect”.
Consider `COc1cc2c(Oc3ccc(NC(=O)c4c5c(cn(-c6ccc(F)cc6)c4=O)CCO5)cc3F)ccnc2cc1N` [Example 181, N-(4-((7-Amino-6-methoxyquinolin-4-yl)oxy)-3-fluorophenyl)-5-(4-fluorophenyl)-6-oxo-2,3,5,6-tetrahydrofuro[3,2-c]pyridine-7-carboxamide], for which the figures for the IC50 (in assay [1]; against RON tyrosine kinase) were 2 nM and 5.92 nM, respectively. Moreover, the cytotoxicity at 1 µM in assay [2] turned out to be 10.2%; in assay [3], 14.6%; in assay [4], 11.3%. For the same compound, the cytotoxicity at 5 µM in assay [2] was found to be 99.1%; in assay [3] it was 36.8%; in assay [4], 35%.
Turning to `COc1cc2c(Oc3ccc(NC(=O)c4c5c(cn(-c6ccc(F)cc6)c4=O)CCO5)cc3F)ccnc2cc1OCCN1CC(F)(F)C1` [Example 124, N-(4-((7-(2-(3,3-difluoroazetidin-1-yl)ethoxy)-6-methoxyquinolin-4-yl)oxy)-3-fluorophenyl)-5-(4-fluorophenyl)-6-oxo-2,3,5,6-tetrahydrofuro[3,2-c]pyridine-7-carboxamide], in assay [1], the IC50 stood at 5 nM. The cytotoxicity at 1 µM in assay [2] amounted to 15.7%; in assay [3], 16.3%; in assay [4] it was 6.2%. In addition, the values for the cytotoxicity at 5 µM in assay [2], in assay [3] and in assay [4] were 62.1%, 57.3% and 98.7%, respectively.
In turn, `COc1cc2nccc(Oc3ccc(NC(=O)c4c5c(cn(-c6ccc(F)cc6)c4=O)CCO5)cc3F)c2cc1OC` [Example 40, N-(4-((6,7-Dimethoxyquinolin-4-yl)oxy)-3-fluorophenyl)-5-(4-fluorophenyl)-6-oxo-2,3,5,6-tetrahydrofuro[3,2-c]pyridine-7-carboxamide] returned an IC50 at RON tyrosine kinase of 3.21 nM. The cytotoxicity at 1 µM came out at 9.17% in assay [2], 29.8% in assay [3] and 8.5% in assay [4]. The cytotoxicity at 5 µM worked out at 22.9% in assay [2], 37.3% in assay [3] and 9.2% in assay [4].
With `COc1cc2c(Oc3ccc(NC(=O)c4c5c(cn(-c6ccc(F)cc6)c4=O)CCO5)cc3F)ccnc2cc1OCCN1CCC(F)(F)CC1` [Example 145, N-(4-((7-(2-(4,4-Difluoropiperidin-1-yl)ethoxy)-6-methoxyquinolin-4-yl)oxy)-3-fluorophenyl)-5-(4-fluorophenyl)-6-oxo-2,3,5,6-tetrahydrofuro[3,2-c]pyridine-7-carboxamide], the IC50 in assay [1] amounted to 2 nM. Besides, the cytotoxicity at 1 µM was determined as 16.4% in assay [2], 25.7% in assay [3] and 11% in assay [4]. Also, the cytotoxicity at 5 µM was 81.4% in assay [2], 45.4% in assay [3] and 87.1% in assay [4].
In turn, `CN(C)C1CN(Cc2ccc(-c3cc4nccc(Oc5ccc(NC(=O)c6c7c(cn(-c8ccc(F)cc8)c6=O)CCO7)cc5F)c4s3)nc2)C1` [Example 20, N-(4-((2-(5-((3-(Dimethylamino)azetidin-1-yl)methyl)pyridin-2-yl)thieno[3,2-b]pyridine-7-yl)oxy)-3-fluorophenyl)-5-(4-fluorophenyl)-6-oxo-2,3,5,6-tetrahydrofuro[3,2-c]pyridine-7-carboxamide] displayed an IC50 in assay [1] of 1 nM. In assay [3], the cytotoxicity at 1 µM is 8.12% and the cytotoxicity at 5 µM is 35.5%. In addition, in assay [4], the cytotoxicity at 1 µM came to 17.4% and the cytotoxicity at 5 µM was 91.2%.
Take `COc1cc2c(Oc3ccc(NC(=O)c4c5c(cn(-c6ccc(F)cc6)c4=O)CCO5)cc3F)ccnc2cc1OCCCN1CC(F)(F)C1` [Example 87, N-(4-((7-(3-(3,3-Difluoroazetidin-1-yl)propoxy)-6-methoxyquinolin-4-yl)oxy)-3-fluorophenyl)-5-(4-fluorophenyl)-6-oxo-2,3,5,6-tetrahydrofuro[3,2-c]pyridine-7-carboxamide]: in assay [1], the IC50 was 3 nM. Further, in assay [3], the cytotoxicity at 1 µM was 40.7% and the cytotoxicity at 5 µM came out at 60.1%. Further, in assay [4], the cytotoxicity at 1 µM is 77.1% and the cytotoxicity at 5 µM came out at 70.5%.
In the case of `COc1cc2c(Oc3ccc(NC(=O)c4c5c(cn(-c6ccc(F)cc6)c4=O)CCO5)cc3F)ccnc2cc1OCCCN1CCC(F)(F)CC1` [Example 105, N-(4-((7-(3-(4,4-Difluoropiperidin-1-yl)propoxy)-6-methoxyquinolin-4-yl)oxy)-3-fluorophenyl)-5-(4-fluorophenyl)-6-oxo-2,3,5,6-tetrahydrofuro[3,2-c]pyridine-7-carboxamide], in assay [1], the IC50 stood at 4 nM. Besides, in assay [3], the cytotoxicity at 1 µM amounted to 33.8% and the cytotoxicity at 5 µM is 45.2%. For the same compound, in assay [4], the cytotoxicity at 1 µM came to 60.4% and the cytotoxicity at 5 µM amounted to 84.1%.
In assay [1], `CCOc1ccn(-c2ccc(F)cc2)c(=O)c1C(=O)Nc1ccc(Oc2ccnc(N)c2Cl)c(F)c1` [Positive control, N-(4-(2-amino-3-chloropyridin-4-yloxy)-3-fluorophenyl)-4-ethoxy-1-(4-fluorophenyl)-2-oxo-1,2-dihydropyridine-3-carboxamide, reference compound] returned an IC50 of 133 nM. The cytotoxicity at 1 µM was found to be 10.4% in assay [2], 9.94% in assay [3] and 3.46% in assay [4]. For the same compound, the cytotoxicity at 5 µM in assay [2] was 16.1%; in assay [3] it was 12.8%; in assay [4], 9.28%.

Usually IC50 stands for the concentration needed to halve the response being measured.
